According to BindingDB's records for patent US10308652 (Bristol-Myers Squibb, 2019):

Target: Tumor necrosis factor (Homo sapiens, UniProt P01375)
Test: TNF induced HEK-Blue assay
Protocol: Test compounds serially diluted in DMSO were plated in an assay plate (Labcyte, Cat. #LP-0200) at final concentrations ranging from 0.004 μM to 25μM. TNFα (final concentration 0.5 ng/ml) or CD4OL (final concentration 30 ng/ml) in assay buffer [DMEM, 4.5 g/l glucose (Gibco, Cat. 21063-029), 10% FBS (Sigma, F4135), 1% Penicillin-Streptomycin (Gibco, Cat. 15140-122), 1% Anti-Anti (Gibco, Cat. 15240-112) and 2 mM L-glutamine (Gibco, Cat. 25030-081)] was then added to the assay plate. After a 30 minute pre-incubation at 37° C. and 5% CO2, HEK-Blue-CD40L cells (InvivoGen, Cat. Code hkb-cd40) containing a NF-κB-driven secreted alkaline phosphatase reporter gene were seeded into the assay plate at a density of 20,000 cells per well. This plate was then incubated for 18 h at 37° C. and 5% CO2. Secreted alkaline phosphatase expression was measured using QUANTI-Blue (InvivoGen, Cat. Code rep-qb1) according to manufacturer's specifications and the assay plate was read on a PerkinElmer Envision at 620 nm.

Sequence of Tumor necrosis factor (P01375 whole entry): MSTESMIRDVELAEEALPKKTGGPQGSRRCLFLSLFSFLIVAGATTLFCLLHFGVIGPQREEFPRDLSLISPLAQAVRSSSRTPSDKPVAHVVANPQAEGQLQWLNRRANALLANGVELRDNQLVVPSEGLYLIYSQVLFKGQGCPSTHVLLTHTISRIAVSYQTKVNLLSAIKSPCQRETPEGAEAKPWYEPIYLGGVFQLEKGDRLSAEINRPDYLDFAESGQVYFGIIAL

CC(C)(O)c1ccc(-c2ccc3nc4c(n3n2)[C@@H](c2ccccc2OC(F)F)NC[C@H]4O)cc1 [US10308652, Example 6]
IC50: < 1 µM
